Measurements taken from PMC9154192 (PLoS Biology, 2022).
Values after ≈ are worked out from the molar mass of the structure shown. Values joined by “and” are separate entries in the source; they are usually repeats but may differ in a detail not shown here. Equal entries are not always repeated. Where two headings read alike, the source gives them in different places.

How the values were obtained:
M. tuberculosis H37Ra = assay: microbe, parasite or virus in culture; format: cell-based, Mycobacterium tuberculosis; settings: Mycobacterium tuberculosis, H37RA
[1] = system: XDR M. tuberculosis (KMRC 00203–00197); format: cell-based, Mycobacterium tuberculosis; settings: for log reduction (CFU): 7 days
M. conceptionense = assay: microbe, parasite or virus in culture; format: cell-based, Mycobacterium conceptionense; settings: Mycolicibacterium senegalense
M. kansasii = assay: microbe, parasite or virus in culture; format: cell-based; settings: Mycobacterium kansasii
M. tuberculosis H37Rv [2] = format: cell-based, Mycobacterium tuberculosis; settings: for RFU/200 μl (replicates1-3), single values / RFU/ml (×104) / RFU/200 μl (average): Fig 2A
XDR M. tuberculosis [3] = assay: Luminescence-based microbial cell viability assay; set-up: species or system Mycobacterium tuberculosis
XDR M. tuberculosis [4] = format: cell-based, Mycobacterium tuberculosis
M. aubagnense = assay: microbe, parasite or virus in culture; format: cell-based, Mycobacterium aubagnense; settings: Mycolicibacterium aubagnense
M. gilvum = assay: microbe, parasite or virus in culture; format: cell-based, Mycobacterium gilvum; settings: Mycolicibacterium gilvum
M. kyorinense = assay: microbe, parasite or virus in culture; format: cell-based; settings: Mycobacterium kyorinense
M. peregrinum = assay: microbe, parasite or virus in culture; format: cell-based, Mycobacterium peregrinum; settings: Mycolicibacterium peregrinum
M. heraklionease = assay: microbe, parasite or virus in culture; format: cell-based; settings: Mycobacterium
M. marinum = assay: microbe, parasite or virus in culture; format: cell-based; settings: Mycobacterium marinum
M. bovis = assay: microbe, parasite or virus in culture; format: cell-based; settings: Mycobacterium tuberculosis variant bovis
M. massiliense = assay: microbe, parasite or virus in culture; format: cell-based, Mycobacterium massiliense; settings: Mycobacteroides abscessus
M. marseiliense = assay: microbe, parasite or virus in culture; format: cell-based; settings: Mycobacterium
M. fortuitum = assay: microbe, parasite or virus in culture; format: cell-based, Mycobacterium fortuitum; settings: Mycolicibacterium fortuitum
in vitro [5] = format: cell-based; settings: human
Protocol: A549 human pulmonary epithelial cells (KCLB 10185), human embryonic kidney (HEK) 293 cells (KCLB 21573), human THP-1 leukemia cells (KCLB 40202), human neuroblastoma SH-SY5Y cells (KCLB 22266), Murine Raw 264.7 macrophages (KCLB 40071), and L929 murine fibroblasts (KCLB 10001) were purchased from the KCLB (Seoul, Korea). Cytotoxicity testing was performed using the MTT assay and the WST-1 cell viability assay as previously described.

[6] = system: clinically isolated MDR, XDR, and TDR M. tuberculosis strains; assay: microbe, parasite or virus in culture; format: cell-based; settings: Mycobacterium tuberculosis
in vitro [7] = format: cell-based, murine; settings: mouse
Summary of the method: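 MTT and WST-1 viability read-outs; cytotoxicity testing per earlier published protocols.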

M. smegmatis = assay: microbe, parasite or virus in culture; format: cell-based, Mycobacterium smegmatis; settings: Mycolicibacterium smegmatis
M. xenopi = assay: microbe, parasite or virus in culture; format: cell-based; settings: Mycobacterium xenopi
M. tuberculosis H37Rv [8] = assay: Luminescence-based microbial cell viability assay; set-up: species or system Mycobacterium tuberculosis; settings: for RLU/50ul (replicates1-3), single values / RLU/ml (×100) / RLU/50ul (average): Fig 2C
[9] = drug conc. 0.39, average of each replicate set
[10] = drug conc. 0.78, average of each replicate set
[11] = drug conc. 1.56, average of each replicate set

Q: Which MIC (M. tuberculosis H37Ra) does the source give for COC(=O)[C@@H]1CCC(=O)N1Cc1cc2ccc(OC)cc2c2cc(OC)c(OC)cc12 [PP1S, (S)-N-[(2,3,6-Trimethoxy-10-phenanthryl)methyl]-pyroglutamic acid methyl ester] here?
A: 1.6 µg/mL (≈ 3.78 µM)

Q: And the “CFU (replicates1-3), single values” [1]?
A: 9800 CFU and 11000 CFU and 9100 CFU and 4200 CFU and 13900 CFU and 20700 CFU and 20100 CFU and 12600 CFU and 16500 CFU and 28000 CFU and 112000 CFU and 92700 CFU and 90100 CFU and 36800 CFU and 38700 CFU and 24400 CFU and 24700 CFU and 22500 CFU

Q: What about the “log reduction (CFU)” value ([1]; at 0.8 μg/ml) of the same compound?
A: 0.8

Q: What about the “log reduction (CFU)” value ([1]; at 1.6 μg/ml) of the same compound?
A: 1.3

Q: And the MIC (M. conceptionense)?
A: > 100 µg/mL

Q: What about the MIC (M. kansasii) of the same compound?
A: > 100 µg/mL

Q: And the “RFU/200 μl (replicates1-3), single values” (shortened to “RFU/200 μl … single values”) (M. tuberculosis H37Rv [2]; drug conc. 0.39)?
A: 59110 RFU/200 μl and 59240 RFU/200 μl and 59440 RFU/200 μl and 58960 RFU/200 μl and 59940 RFU/200 μl and 59150 RFU/200 μl and 59270 RFU/200 μl and 59190 RFU/200 μl and 59120 RFU/200 μl

Q: What about the “RFU/ml (×104)” value (M. tuberculosis H37Rv [2]; drug conc. 0.39) of the same compound?
A: 29.6 RFU/ml (×104)

Q: What about the “RFU/200 μl (average)” value (M. tuberculosis H37Rv [2]; [9]) of the same compound?
A: 59447 RFU/200 μl and 59203 RFU/200 μl and 59157 RFU/200 μl

Q: And the “RFU/200 μl … single values” (M. tuberculosis H37Rv [2]; drug conc. 0.78)?
A: 53920 RFU/200 μl and 54090 RFU/200 μl and 54550 RFU/200 μl and 54830 RFU/200 μl and 54570 RFU/200 μl and 54130 RFU/200 μl and 54320 RFU/200 μl and 54040 RFU/200 μl and 53950 RFU/200 μl

Q: What about the “RFU/ml (×104)” value (M. tuberculosis H37Rv [2]; drug conc. 0.78) of the same compound?
A: 27.1 RFU/ml (×104)

Q: What about the “RFU/200 μl (average)” value (M. tuberculosis H37Rv [2]; [10]) of the same compound?
A: 54650 RFU/200 μl and 54163 RFU/200 μl and 53987 RFU/200 μl

Q: And the “RFU/200 μl … single values” (M. tuberculosis H37Rv [2]; drug conc. 1.56)?
A: 29900 RFU/200 μl and 30040 RFU/200 μl and 30750 RFU/200 μl and 30860 RFU/200 μl and 30640 RFU/200 μl and 28310 RFU/200 μl and 28580 RFU/200 μl and 28120 RFU/200 μl and 29920 RFU/200 μl

Q: What about the “RFU/ml (×104)” value (M. tuberculosis H37Rv [2]; drug conc. 1.56) of the same compound?
A: 14.8 RFU/ml (×104)

Q: And the “RFU/200 μl (average)” value (M. tuberculosis H37Rv [2]; [11])?
A: 30750 RFU/200 μl and 28337 RFU/200 μl and 29953 RFU/200 μl

Q: What about the “concentration with significant antitubercular effect” value (M. tuberculosis H37Rv [2]; fluorescence-based assay) of the same compound?
A: 1.56 µg/mL

Q: What about the “RLU/50ul (replicates1-3), single values” (XDR M. tuberculosis [3]) of the same compound?
A: 370 RLU/50ul (2×) and 430 RLU/50ul and 270 RLU/50ul and 260 RLU/50ul and 320 RLU/50ul and 360 RLU/50ul and 340 RLU/50ul and 390 RLU/50ul and 420 RLU/50ul and 450 RLU/50ul and 590 RLU/50ul and 610 RLU/50ul and 670 RLU/50ul and 570 RLU/50ul and 550 RLU/50ul (2×) and 460 RLU/50ul and 440 RLU/50ul and 630 RLU/50ul and 790 RLU/50ul and 540 RLU/50ul and 580 RLU/50ul and 840 RLU/50ul and 860 RLU/50ul and 750 RLU/50ul and 640 RLU/50ul

Q: And the “RLU/ml (×100)” value (XDR M. tuberculosis [3])?
A: 69.1 RLU/ml (×100) and 105.8 RLU/ml (×100) and 137.3 RLU/ml (×100)

Q: What about the “concentration with significant antitubercular effect” value (XDR M. tuberculosis [3]) of the same compound?
A: 1.56 µg/mL and 0.78 µg/mL

Q: And the “RFU/200 μl … single values” (XDR M. tuberculosis [4])?
A: 28550 RFU/200 μl (2×) and 31600 RFU/200 μl and 31980 RFU/200 μl and 30880 RFU/200 μl and 29180 RFU/200 μl and 29520 RFU/200 μl and 28730 RFU/200 μl and 28570 RFU/200 μl and 47010 RFU/200 μl and 47100 RFU/200 μl and 48600 RFU/200 μl and 48210 RFU/200 μl and 50840 RFU/200 μl and 43460 RFU/200 μl and 43510 RFU/200 μl and 43540 RFU/200 μl and 47050 RFU/200 μl and 50580 RFU/200 μl and 50770 RFU/200 μl and 53600 RFU/200 μl and 53640 RFU/200 μl and 54810 RFU/200 μl and 45790 RFU/200 μl and 45690 RFU/200 μl and 45900 RFU/200 μl and 50680 RFU/200 μl

Q: And the “RFU/ml (×104)” value (XDR M. tuberculosis [4])?
A: 14.9 RFU/ml (×104) and 23.3 RFU/ml (×104) and 25.1 RFU/ml (×104)

Q: And the “concentration with significant antitubercular effect” value (XDR M. tuberculosis [4])?
A: 1.56 µg/mL and 0.78 µg/mL

Q: What about the MIC (M. aubagnense) of the same compound?
A: > 100 µg/mL

Q: What about the MIC (M. gilvum) of the same compound?
A: > 100 µg/mL

Q: And the MIC (M. kyorinense)?
A: > 100 µg/mL

Q: What about the MIC (M. peregrinum) of the same compound?
A: > 100 µg/mL

Q: And the MIC (M. heraklionease)?
A: > 100 µg/mL

Q: What about the MIC (M. marinum) of the same compound?
A: > 100 µg/mL

Q: What about the MIC (M. bovis) of the same compound?
A: 1.6 µg/mL (≈ 3.78 µM)

Q: And the MIC (M. massiliense)?
A: > 100 µg/mL

Q: And the MIC (M. marseiliense)?
A: > 100 µg/mL

Q: What about the MIC (M. fortuitum) of the same compound?
A: > 100 µg/mL

Q: And the CC50 (in vitro [5]; A549)?
A: > 500 µg/mL

Q: What about the CC50 (in vitro [5]; HEK-293) of the same compound?
A: > 500 µg/mL

Q: And the CC50 (in vitro [5]; SH-SY5Y)?
A: > 500 µg/mL

Q: What about the CC50 (in vitro [5]; THP-1) of the same compound?
A: > 500 µg/mL

Q: What about the MIC ([6]; TDR-1) of the same compound?
A: 3.3 µg/mL (≈ 7.79 µM)

Q: What about the MIC ([6]; TDR-2) of the same compound?
A: 0.8 µg/mL (≈ 1.89 µM)

Q: And the MIC ([6]; TDR-3)?
A: 3.1 µg/mL (≈ 7.32 µM)

Q: And the CC50 (in vitro [7]; L929)?
A: > 500 µg/mL

Q: What about the CC50 (in vitro [7]; L929, MTT assay (Table S1)) of the same compound?
A: > 100 µg/mL

Q: And the CC50 (in vitro [7]; RAW, MTT assay (Table S1))?
A: > 100 µg/mL

Q: And the CC50 (in vitro [7]; Raw264.7)?
A: > 500 µg/mL

Q: And the MIC (M. smegmatis)?
A: > 100 µg/mL

Q: What about the MIC (M. xenopi) of the same compound?
A: > 100 µg/mL

Q: What about the “RLU/50ul (replicates1-3), single values” (M. tuberculosis H37Rv [8]; drug conc. 0.39) of the same compound?
A: 1910 RLU/50ul and 1870 RLU/50ul and 3370 RLU/50ul and 3410 RLU/50ul and 3790 RLU/50ul and 1810 RLU/50ul and 1790 RLU/50ul and 1970 RLU/50ul and 1850 RLU/50ul

Q: What about the “RLU/ml (×100)” value (M. tuberculosis H37Rv [8]; drug conc. 0.39) of the same compound?
A: 483.8 RLU/ml (×100)

Q: What about the “RLU/50ul (average)” value (M. tuberculosis H37Rv [8]; [9]) of the same compound?
A: 3523 RLU/50ul and 1857 RLU/50ul and 1877 RLU/50ul

Q: And the “RLU/50ul (replicates1-3), single values” (M. tuberculosis H37Rv [8]; drug conc. 0.78)?
A: 1380 RLU/50ul and 1580 RLU/50ul and 2750 RLU/50ul and 2760 RLU/50ul and 3450 RLU/50ul and 2020 RLU/50ul and 2180 RLU/50ul and 1970 RLU/50ul and 1410 RLU/50ul

Q: And the “RLU/ml (×100)” value (M. tuberculosis H37Rv [8]; drug conc. 0.78)?
A: 433.3 RLU/ml (×100)

Q: What about the “RLU/50ul (average)” value (M. tuberculosis H37Rv [8]; [10]) of the same compound?
A: 2987 RLU/50ul and 2057 RLU/50ul and 1457 RLU/50ul

Q: And the “RLU/50ul (replicates1-3), single values” (M. tuberculosis H37Rv [8]; drug conc. 1.56)?
A: 750 RLU/50ul and 850 RLU/50ul and 1460 RLU/50ul and 1290 RLU/50ul and 960 RLU/50ul and 1050 RLU/50ul and 1110 RLU/50ul and 1070 RLU/50ul and 790 RLU/50ul

Q: What about the “RLU/ml (×100)” value (M. tuberculosis H37Rv [8]; drug conc. 1.56) of the same compound?
A: 207.3 RLU/ml (×100)

Q: What about the “RLU/50ul (average)” value (M. tuberculosis H37Rv [8]; [11]) of the same compound?
A: 1237 RLU/50ul and 1077 RLU/50ul and 797 RLU/50ul

Q: And the “concentration with significant antitubercular effect” value (M. tuberculosis H37Rv [8]; luminescence-based assay)?
A: 1.56 µg/mL
